Experimental data reported in patent publication US20260137678A1, “METHODS FOR TREATING OR PREVENTING NEUROENDOCRINE TUMOR FORMATION USING XPO1 INHIBITORS” (priority 2022, published 2026).

Columns and labels:
[1] = test system: LuCAP49 (NEPC) PDX; assay: In vivo treatment of PDX, tumor growth and tumor western blots; parameters: species or system mice; conditions: tumors from in vivo treatment; selinexor added to cisplatin
[2] = test system: MSK_Lx151 PDX; type: in vivo
Description: FIGS. 4A-4I: Exportin 1 inhibition interferes with NE transformation. In vivo treatment of cell line xenografts for TP53/RB1 DKO 22PC (FIG. 4A) and LnCap/AR (FIG. 4D) PRAD cells with enzalutamide, selinexor or their combination. 5-10 female (22PC) or male (LnCap/AR) 6-week-old athymic nude mice were subcutaneously engrafted per treatment arm and until tumors reached 100-150 mm^3. At that point, mice were randomized into groups and treated with either vehicle (n=7 for 22PC and n=4 for LnCap/AR), selinexor (10 mg/kg p.o. QDx3, n=7 for 22PC and n=4 for LnCap/AR), enzalutamide (10 mg/kg p.o. QDx5, n=7 for 22PC and n=5 for LnCap/AR), or the combinations of enzalutamide+selinexor at the previously mentioned doses (n=9 for 22PC and n=5 for LnCap/AR). Mice weights and tumor volumes were measured twice a week and mice were sacrificed when tumors reached humane endpoint (volume=1000 mm^3). Tumor volumes are shown as normalized volume in arbitrary units (au). Each tumor was normalized to its volume at day 0 of treatment. Representative IHC images for synaptophysin (SYP) and chromogranin A (CHGA) staining in DKO 22PC (FIG. 4B) and LnCap/AR (FIG. 4E) tumors. Quantification of SYP- or CHGA-positive cells, normalized to tissue area, in immunohistochemical tissue stains in DKO 22PC (n=6, 5, 4 and 4 tumor for control, selinexor-, enzalutamide and combo-treated arms, respectively) (FIG. 4C) and LnCap/AR (FIG. 4F) (n=5, 5, 6 and 6 randomly selected tissue pieces for control, selinexor-, enzalutamide and combo-treated arms, respectively) tumors. Positive cells were counted, tissue area (viable tumor area) was estimated using the SketchAndCalc online app (https://www.sketchandcalc.com/), and positive-stained cells were normalized by estimated area. […] Mice weights and tumor volumes were measured twice a week and mice were sacrificed when tumors reached humane endpoint (volume=1000 mm^3). […] For FIGS. 4A, 4C, 4D and 4F, P-values were calculated using the Student's t-test (unpaired, heterogeneous variances, two-tailed). […]

O=C(/C=C\n1cnc(-c2cc(C(F)(F)F)cc(C(F)(F)F)c2)n1)NNc1cnccn1 [selinexor]
activation of the AKT pathway in tumors (western blot) [1]: suppressed
T/C at control arm endpoint ([2]; osimertinib 25 mg/kg p.o. QDx5, selinexor 10 mg/kg p.o. QDx3, combination at same doses): 57.67%
SOX2 protein upregulation induced by targeted therapy (western blot) ([2]; selinexor added to osimertinib): suppressed
